Results from US7592478B2, “Ligand antagonists of RAR receptors and pharmaceutical/cosmetic applications thereof” (Galderma Research & Development, priority 2002, dated 2009).

What was measured:
Format in all cases: cell-based
[1] = biological target: T1, RAR alpha (Homo sapiens, UniProt P10276); test: Transactivation test (luciferase reporter, stably transfected HeLa cells), RAR alpha; conditions: for Kd: Schild regression vs reference agonist 4-[2-(5,5,8,8-tetramethyl-5,6,7,8-tetrahydro-2-naphthyl)propenyl]benzoic acid, read-out: RAR alpha Kdapp; for IC50: at the reference agonist concentration that gives 80% activation
T1 sequence (P10276 183-417 limits assumed): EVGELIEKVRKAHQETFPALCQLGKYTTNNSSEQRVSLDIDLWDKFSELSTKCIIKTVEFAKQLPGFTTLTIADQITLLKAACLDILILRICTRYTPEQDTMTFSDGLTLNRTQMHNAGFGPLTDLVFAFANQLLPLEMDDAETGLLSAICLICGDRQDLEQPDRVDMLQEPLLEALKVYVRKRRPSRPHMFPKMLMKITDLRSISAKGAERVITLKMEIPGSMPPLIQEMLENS
Method: (§1) The activation of receptors with an agonist (activator) in HeLa cells leads to the expression of a reporter gene, luciferase, which, in the presence of a substrate, generates light. The activation of the receptors may thus be measured by quantifying the luminescence produced after incubating the cells in the presence of a reference agonist. The inhibitory products displace the agonist from its site, thus preventing activation of the receptor. The activity is measured by quantifying the reduction in light produced. This measurement makes it possible to determine the inhibitory activity of the compounds according to the invention.
(§2) In this study, a constant is determined which represents the affinity of the molecule for the receptor. Since this value can fluctuate depending on the basal activity and the expression of the receptor, it is referred to as the Kd apparent (KdApp).
(§3) To determine this constant, “crossed curves” of the test product against a reference agonist, 4-[2-(5,5,8,8-tetramethyl-5,6,7,8-tetrahydro-2-naphthyl)propenyl]benzoic acid, are performed in 96-well plates. The test product is used at 10 concentrations and the reference agonist at 7 concentrations. In each well, the cells are in contact with a concentration of the test product and a concentration of the reference agonist, 4-[2-(5,5,8,8-tetramethyl-5,6,7,8-tetrahydro-2-naphthyl)propenyl]benzoic acid. Measurements are also taken for the total agonist (4-[2-(5,5,8,8-tetramethyl-5,6,7,8-tetrahydro-2-naphthyl)propenyl]benzoic acid) and inverse agonist, 4-{(E)-3-[4-(4-tert-butylphenyl)-5,5,8,8-tetramethyl-5,6,7,8-tetrahydro-2-naphthyl]-3-oxopropenyl}benzoic acid, controls.
(§4) These crossed curves make it possible to determine the AC50 values (concentration at which 50% activation is observed) for the reference ligand at various concentrations of test product. These AC50 values are used to calculate the Schild regression by plotting a straight line corresponding to the Schild equation (“quantitation in receptor pharmacology” Terry P. Kenakin, Receptors and Channels, 2001, 7, 371-385).
(§5) In the case of an antagonist, an IC50 value (concentration that inhibits 50% of the activity) is calculated by plotting the curve of the product at the concentration of the reference ligand that gives 80% activation.
(§6) The HeLa cell lines used are stable transfectants containing the plasmids ERE-βGlob-Luc-SV-Neo (reporter gene) and RAR (α, β, γ) ER-DBD-puro. These cells are inoculated into 96-well plates at a rate of 10000 cells per well in 100 μl of DMEM medium without phenol red, and supplemented with 10% defatted calf serum. The plates are then incubated at 37° C. and 7% CO2 for 4 hours.
(§7) The various dilutions of the test products, of the reference ligand (4-[2-(5,5,8,8-tetramethyl-5,6,7,8-tetrahydro-2-naphthyl)propenyl]benzoic acid), of the 100% control (100 nM 4-[2-(5,5,8,8-tetramethyl-5,6,7,8-tetrahydro-2-naphthyl)propenyl]benzoic acid) and of the 0% control (500 nM 4-{(E)-3-[4-(4-tert-butylphenyl)-5,5,8,8-tetramethyl-5,6,7,8-tetrahydro-2-naphthyl]-3-oxopropenyl}benzoic acid) are added at a rate of 5 μl per well. The plates are then incubated for 18 hours at 37° C. and 7% CO2.
(§8) The culture medium is removed by turning over and 100 μl of a 1:1 PBS/luciferine mixture is added to each well. After 5 minutes, the plates are read using the luminescence reader.

[2] = biological target: T2, RAR beta (Homo sapiens, UniProt P10826); test: Transactivation test (luciferase reporter, stably transfected HeLa cells), RAR beta; conditions: for Kd: Schild regression vs reference agonist 4-[2-(5,5,8,8-tetramethyl-5,6,7,8-tetrahydro-2-naphthyl)propenyl]benzoic acid, read-out: RAR beta Kdapp; for IC50: at the reference agonist concentration that gives 80% activation
T2 sequence (P10826 183-417 limits assumed): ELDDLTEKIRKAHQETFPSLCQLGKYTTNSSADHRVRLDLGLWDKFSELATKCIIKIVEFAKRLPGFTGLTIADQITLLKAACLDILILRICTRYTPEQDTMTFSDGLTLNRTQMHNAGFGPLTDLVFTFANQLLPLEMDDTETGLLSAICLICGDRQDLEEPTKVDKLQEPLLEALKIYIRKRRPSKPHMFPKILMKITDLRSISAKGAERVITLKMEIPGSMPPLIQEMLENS
Method: as §1, §2, §3, §4, §5, §6, §7, §8

[3] = biological target: T3, RAR gamma (Homo sapiens, UniProt P13631); test: Transactivation test (luciferase reporter, stably transfected HeLa cells), RAR gamma; conditions: for Kd: Schild regression vs reference agonist 4-[2-(5,5,8,8-tetramethyl-5,6,7,8-tetrahydro-2-naphthyl)propenyl]benzoic acid, read-out: RAR gamma Kdapp; for IC50: at the reference agonist concentration that gives 80% activation
T3 sequence (P13631 185-419 limits assumed): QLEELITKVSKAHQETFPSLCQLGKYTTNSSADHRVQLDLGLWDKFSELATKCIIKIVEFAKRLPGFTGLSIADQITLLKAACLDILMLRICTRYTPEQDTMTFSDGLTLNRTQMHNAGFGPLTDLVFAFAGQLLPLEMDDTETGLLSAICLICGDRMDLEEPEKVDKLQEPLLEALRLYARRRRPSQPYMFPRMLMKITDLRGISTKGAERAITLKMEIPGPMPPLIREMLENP
Method: as §1, §2, §3, §4, §5, §6, §7, §8

Row | Compound | Kd [1] | IC50 [1] | Kd [2] | IC50 [2] | Kd [3] | IC50 [3]
1 | Cc1ccc(C2=CCC(C)(C)c3cc([Se]C#Cc4ccc(C(=O)O)cc4)ccc32)cc1 [Example 1, 4-(8,8-Dimethyl-5-p-tolyl-7,8-dihydro-2-naphthylselanylethynyl)benzoic acid] | 30 nM | 52.5 nM | 8 nM | 12.8 nM | 2 nM | 5 nM
2 | Cc1ccc(C2=CCC(C)(C)c3cc([Se]C#Cc4ccc(C(=O)O)c(F)c4)ccc32)cc1 [Example 9, 4-(8,8-Dimethyl-5-p-tolyl-7,8-dihydro-2-naphthylselanylethynyl)-2-fluorobenzoic acid] | 120 nM | 210 nM | 8 nM | 12.8 nM | 2 nM | 5 nM
3 | CN(C)c1ccc(C2=CCC(C)(C)c3cc(C(O)C#Cc4ccc(C(=O)O)cc4)ccc32)cc1 (stereo not drawn) [Example 19, 4-{3-[5-(4-Dimethylaminophenyl)-8,8-dimethyl-7,8-dihydro-2-naphthyl]-3-hydroxyprop-1-ynyl}benzoic acid] | 500 nM | 875 nM | 120 nM | 192 nM | 60 nM | 150 nM
